Common to all, as to format: cell-based, rat
Assay [1] relates to LPS-induced microglia activation. Description: Image-based assay of LPS-induced microglia activation (HTS and dose response). The note with it: for inhibition at 10 µM: Rattus norvegicus, Microglia, read-out: LPS % inhibition.
For assay [2], the system named is fibrin-induced microglia activation. Description: Image-based assay of fibrin-induced microglia activation (HTS and dose response). Particulars: for inhibition at 10 µM: Rattus norvegicus, Microglia, read-out: Fibrin % inhibition.
The subject of assay [3] is fibrin- and LPS-induced microglia activation. In words: cells.
[4] abbreviates: primary microglia HTS, LPS stimulation, compounds at 10 μM.
[5] abbreviates: primary microglia HTS, fibrin stimulation, compounds at 10 μM.
Where [6] appears, read: quadrant by fibrin and LPS inhibition, HTS at 10 μM.
Where [7] appears, read: primary HTS, 10 μM, LPS-stimulated primary microglia.
Setting [8] is: primary HTS, 10 μM, fibrin-stimulated primary microglia.
Setting [9] is: classification by fibrin and LPS inhibition, HTS at 10 μM.
Where [10] appears, read: 48 h, primary microglia HTS, LPS stimulation, increased cell size (>800 μm^2) as marker of activation.
[11] abbreviates: primary microglia HTS, fibrin stimulation, increased cell size (>800 μm^2) as marker of activation.
Where [12] appears, read: quadrant by fibrin and LPS inhibition in HTS of 1907 compounds.

SMILES strings stand for the structures. Counter-ions that a name gives are not always drawn. Like-named read-outs stand apart in the source and are kept apart here. *1 amine or outer side, *2 acyl side, *3 side chain or, on linkers, in order; H or OH if unused. Where a SMILES comes first, the peptide text is derived from it. Bridges are numbered along the chain shown (N, C = ends). Roman numbers before positions name the chains, in order. [ ]: non-standard residue; d: D form. Actinocin(9to1) = Cc1c2oc3c(C)ccc(C(=O)[*:1])c3nc-2c(C(=O)[*:2])c(N)c1=O; NMeV = CN[C@H](C(=O)O)C(C)C; Sar = CNCC(=O)O

We go through 31 molecules from patent publication US20210330611A1, “THERAPY FOR NEUROLOGICAL DISEASES/DISORDERS” (priority 2020, published 2021).

The inhibition is the change of the read-out against control, counted positive when it falls. Consider `COC(=O)C1=CCCN(C)C1` [Arecoline], for which the inhibition at 10 µM in assay [1] (setting [4]) was 14%; in assay [2] (setting [5]), 17%. Further, the “Quadrant (FIG. 5b)” value in assay [3] (setting [6]) was “Q4”.
Take `O=C1O[C@H]([C@@H](O)CO)C(O)=C1O` [Ascorbic Acid]: the values for the inhibition at 10 µM in assay [1] (setting [4]) and in assay [2] (setting [5]) were 12% and -8%, respectively. Also, in assay [3] (setting [6]), the “Quadrant (FIG. 5b)” value is recorded as “Q4”.
The matching figures for `CNCC[C@@H](Oc1ccccc1C)c1ccccc1` [Atomoxetine Hydrochloride]: 7%, 15% and “Q4”.
One may read the IC50 as the concentration needed to halve the response being measured. Consider `CC(C)c1c(C(=O)Nc2ccccc2)c(-c2ccccc2)c(-c2ccc(F)cc2)n1CC[C@@H](O)C[C@@H](O)CC(=O)[O-].CC(C)c1c(C(=O)Nc2ccccc2)c(-c2ccccc2)c(-c2ccc(F)cc2)n1CC[C@@H](O)C[C@@H](O)CC(=O)[O-].[Ca+2]` [Atorvastatin calcium, reference compound], for which the LPS % inhibition in assay [1] turned out to be 88%. Moreover, the IC50 in assay [1] (read-out: LPS IC50) stood at 3 µM; in assay [1] (read-out: LPS IC50 (uM) (Suppl. Table 7)) it was 3 µM; in assay [2] (read-out: Fibrin IC50), 0.6 µM; in assay [2] (read-out: Fibrin IC50 (uM) (Suppl. Table 7)), 0.6 µM. The “Cherry-picked Hit (Suppl. Table 7)” value in assay [3] was “HIT (key: HIT: Hits were defined as molecules that exhibited greater than 50% inhibition of either fibrin or LPS activation)”. For the same molecule, the Hit result in assay [3] is reported as “HIT (key: HIT: Hits were defined as molecules that exhibited greater than 50% inhibition of either fibrin or LPS activation)”. Moreover, the “Quadrant (FIG. 5b)” value in assay [3] is given as “Q2”.
As for `O=C(CCCN1CCN(c2ccccn2)CC1)c1ccc(F)cc1` [Azaperone], the figures for the inhibition at 10 µM in assay [1] (setting [4]) and in assay [2] (setting [5]) were 12% and -4%, respectively. In addition, the “Quadrant (FIG. 5b)” value in assay [3] (setting [6]) is “Q4”.
Consider `CC1=C(/C=C/C(C)=C/C=C/C(C)=C/C=C/C=C(C)/C=C/C=C(C)/C=C/C2=C(C)CCCC2(C)C)C(C)(C)CCC1` [Beta-carotene], for which the inhibition at 10 µM in assay [1] was -3%; in assay [2], -15%. Moreover, the “Quadrant (FIG. 5b)” value in assay [3] was “Q4”.
On the same counts, the results for `CC1=C(C(=O)O)N2C(=O)[C@@H](NC(=O)[C@H](N)c3ccccc3)[C@H]2SC1` [Cephalexin] are 17%, -1% and “Q4”.
As for `COCc1c(C(C)C)nc(C(C)C)c(/C=C/[C@@H](O)C[C@@H](O)CC(=O)O)c1-c1ccc(F)cc1` [Cerivastatin, Cerivastatin Na], the LPS % inhibition in assay [1] was 101%. Also, in assay [2], the Fibrin % inhibition is on record as 103%. Moreover, the “Quadrant (FIG. 5b)” value in assay [3] is given as “Q2”.
Consider `O=C(O)COCCN1CCN(C(c2ccccc2)c2ccc(Cl)cc2)CC1` (stereo not drawn) [Cetirizine], for which the results for the inhibition at 10 µM in assay [1] and in assay [2] were 0% and 5%, respectively. Also, the “Quadrant (FIG. 5b)” value in assay [3] is “Q4”.
On to `N.N.[Cl][Pt][Cl]` [Cisplatin], for which the LPS % inhibition in assay [1] (setting [7]) was found to be 20%. Also, in assay [2] (setting [8]), the Fibrin % inhibition is listed as −13%. The “Quadrant (FIG. 5b)” value in assay [3] (primary HTS, 10 μM) was “Q4”.
On to `CCC[C@@H]1C[C@@H](C(=O)N[C@@H]([C@H]2O[C@H](SC)[C@H](O)[C@@H](O)[C@H]2O)[C@H](C)Cl)N(C)C1` [Clindamycin Hydrochloride], for which the inhibition at 10 µM in assay [1] is 7%; in assay [2] it was -44%. The “Quadrant (FIG. 5b)” value in assay [3] is “Q4”.
`CCCCCCCCCCCCCCCC(=O)O[C@@H]1[C@@H](O)[C@@H](O)[C@@H]([C@H](NC(=O)[C@@H]2C[C@@H](CCC)CN2C)[C@H](C)Cl)O[C@@H]1SC.Cl` [Clindamycin Palmitate Hydrochloride]: the LPS % inhibition in assay [1] (setting [7]) was determined as 11%. In addition, the Fibrin % inhibition in assay [2] (setting [8]) is recorded as −23%. Besides, in assay [3] (primary HTS, 10 μM), the “Quadrant (FIG. 5b)” value is recorded as “Q4”.
On to `C[C@]12CCC(=O)C=C1CC[C@@H]1[C@@H]2C(=O)C[C@@]2(C)[C@H]1CC[C@]2(O)C(=O)CO` [Cortisone], for which the LPS % inhibition in assay [1] (setting [7]) is on record as 44%. In addition, in assay [2] (setting [8]), the Fibrin % inhibition is on record as 37%. Moreover, the “Quadrant (FIG. 5b)” value in assay [3] (primary HTS, 10 μM) is on record as “Q4”.
For `CCOP(=S)(OCC)Oc1ccc2c(C)c(Cl)c(=O)oc2c1` [Coumophos], the LPS % inhibition in assay [1] (setting [4]) is given as 16%. Further, in assay [2] (setting [5]), the Fibrin % inhibition is −12%. The “Quadrant (FIG. 5b)” value in assay [3] (setting [9]) is “Q4”.
On the same counts, the results for `OC[C@H]1O[C@H](O[C@H]2[C@H](O)[C@@H](O)C(O)O[C@@H]2CO)[C@H](O)[C@@H](O)[C@@H]1O` (stereo partly drawn) [D-(+)-maltose] are 14%, −7% and “Q4”.
On to `C=C(C)[C@H]1CC=C(C)CC1` [D-limonene], for which the LPS % inhibition in assay [1] (setting [4]) amounted to 11%. In assay [2] (setting [5]), the Fibrin % inhibition is listed as −19%. Further, in assay [3] (setting [9]), the “Quadrant (FIG. 5b)” value is “Q4”.
Regarding `Cc1c2oc3c(C)ccc(C(=O)N[C@@H]4C(=O)N[C@H](C(C)C)C(=O)N5CCC[C@H]5C(=O)N(C)CC(=O)N(C)[C@@H](C(C)C)C(=O)O[C@@H]4C)c3nc-2c(C(=O)N[C@@H]2C(=O)N[C@H](C(C)C)C(=O)N3CCC[C@H]3C(=O)N(C)CC(=O)N(C)[C@@H](C(C)C)C(=O)O[C@@H]2C)c(N)c1=O` [Dactinomycin] (I: T[dV]P[Sar][NMeV] / II: T[dV]P[Sar][NMeV]; ester I:1-I:C, II:1-II:C; linker I:N-II:N via Actinocin(9to1)), the inhibition at 10 µM in assay [1] (setting [10]) and in assay [2] (setting [11]) was 106% throughout. In addition, the “Quadrant (FIG. 5b)” value in assay [3] (setting [12]) was “Q2”.
On to `Cc1nc(Nc2ncc(C(=O)Nc3c(C)cccc3Cl)s2)cc(N2CCN(CCO)CC2)n1` [Dasatinib], for which the results for the inhibition at 10 µM in assay [1] (setting [10]) and in assay [2] (setting [11]) were 70% and 109%, respectively. Besides, the “Quadrant (FIG. 5b)” value in assay [3] (setting [12]) is recorded as “Q2”.
As to `CN1C(=O)CN=C(c2ccccc2)c2cc(Cl)ccc21` [Diazepam], the inhibition at 10 µM in assay [1] is 5%; in assay [2] it was -19%. Moreover, in assay [3], the “Quadrant (FIG. 5b)” value is “Q4”.
`O=C(O)Cc1ccccc1Nc1c(Cl)cccc1Cl` [Diclofenac]: the inhibition at 10 µM in assay [1] (setting [4]) was 12%; in assay [2] (setting [5]), -27%. Further, the “Quadrant (FIG. 5b)” value in assay [3] (setting [9]) was “Q4”.
With `CN(C)CCOC(c1ccccc1)c1ccccc1` [Diphenhydramine], the inhibition at 10 µM in assay [1] is 15%; in assay [2], -47%. Moreover, the “Quadrant (FIG. 5b)” value in assay [3] is reported as “Q4”.
With `COc1cc2c(cc1OC)C(=O)C(CC1CCN(Cc3ccccc3)CC1)C2` (stereo not drawn) [Donepezil], the values for the inhibition at 10 µM in assay [1] and in assay [2] were 17% and 5%, respectively. Also, the “Quadrant (FIG. 5b)” value in assay [3] is “Q4”.
Turning to `COc1cccc2c1C(=O)c1c(O)c3c(c(O)c1C2=O)C[C@@](O)(C(=O)CO)C[C@@H]3O[C@H]1C[C@H](N)[C@H](O)[C@H](C)O1` [Doxorubicin], the inhibition at 10 µM in assay [1] (setting [10]) is 108%; in assay [2] (setting [11]) it was 106%. Besides, the “Quadrant (FIG. 5b)” value in assay [3] (setting [12]) is recorded as “Q2”.
Consider `O=C(CCCN1CC=C(n2c(=O)[nH]c3ccccc32)CC1)c1ccc(F)cc1` [Droperidol], for which the inhibition at 10 µM is 20% in assay [1] and -3% in assay [2]. The “Quadrant (FIG. 5b)” value in assay [3] was “Q4”.
Regarding `CN[C@@H](C)[C@H](O)c1ccccc1.Cl` [Ephedrine (1r,2s) Hydrochloride], the LPS % inhibition in assay [1] (setting [4]) worked out at 10%. Also, in assay [2] (setting [5]), the Fibrin % inhibition was −26%. Besides, in assay [3] (setting [9]), the “Quadrant (FIG. 5b)” value was “Q4”.
As to `C[C@]12CC[C@@H]3c4ccc(O)cc4CC[C@H]3[C@@H]1C[C@H](O)[C@@H]2O` [Epiestriol], the inhibition at 10 µM in assay [1] is 6%; in assay [2], -25%. Besides, the “Quadrant (FIG. 5b)” value in assay [3] is “Q4”.
As to `C[C@]12CC[C@@H]3c4ccc(O)cc4CC[C@H]3[C@@H]1C[C@@H](O)[C@@H]2O` [Estriol], the LPS % inhibition in assay [1] (10 µM) was determined as 16%. For the same molecule, the inhibition at 10 µM is 8% in assay [1] and -17% in assay [2]. The “Quadrant (FIG. 5b)” value in assay [3] is on record as “Q4”.
Regarding `CCN1C(=O)NC(c2ccccc2)C1=O` (stereo not drawn) [Ethotoin], the inhibition at 10 µM in assay [1] (setting [4]) is 12%; in assay [2] (setting [5]), -36%. In addition, in assay [3] (setting [9]), the “Quadrant (FIG. 5b)” value is “Q4”.
For `NC(N)=Nc1nc(CSCCC(N)=NS(N)(=O)=O)cs1` [Famotidine], the inhibition at 10 µM was 9% in assay [1] and -82% in assay [2]. In addition, the “Quadrant (FIG. 5b)” value in assay [3] is given as “Q4”.
As to `Nc1ccc(C(=O)Oc2ccccc2)c(O)c1` [Fenamisal, Phenyl Aminosalicylate], the LPS % inhibition in assay [1] (setting [4]) is 16%. For the same molecule, the Fibrin % inhibition in assay [2] (setting [5]) was −8%. Further, the “Quadrant (FIG. 5b)” value in assay [3] (setting [9]) is recorded as “Q4”.
As to `CC(C)(C(=O)O)c1ccc(C(O)CCCN2CCC(C(O)(c3ccccc3)c3ccccc3)CC2)cc1` (stereo not drawn) [Fexofenadine], the inhibition at 10 µM in assay [1] (48 h) is 14%; in assay [2] it was 13%. Also, the “Quadrant (FIG. 5b)” value in assay [3] was “Q4”.
